{"source": "paper PMC5126700", "about": "(Scientific Reports, 2016)", "key": {"ERp57 [1]": {"target": "T1, ERp57 (Homo sapiens, UniProt P30101)", "T1 construct": "we performed the isothermal titration calorimetry of the whole protein and its two mutants; made in house; host or cells: E. coli BL21 (pET21)", "T1 sequence (P30101 25-505)": "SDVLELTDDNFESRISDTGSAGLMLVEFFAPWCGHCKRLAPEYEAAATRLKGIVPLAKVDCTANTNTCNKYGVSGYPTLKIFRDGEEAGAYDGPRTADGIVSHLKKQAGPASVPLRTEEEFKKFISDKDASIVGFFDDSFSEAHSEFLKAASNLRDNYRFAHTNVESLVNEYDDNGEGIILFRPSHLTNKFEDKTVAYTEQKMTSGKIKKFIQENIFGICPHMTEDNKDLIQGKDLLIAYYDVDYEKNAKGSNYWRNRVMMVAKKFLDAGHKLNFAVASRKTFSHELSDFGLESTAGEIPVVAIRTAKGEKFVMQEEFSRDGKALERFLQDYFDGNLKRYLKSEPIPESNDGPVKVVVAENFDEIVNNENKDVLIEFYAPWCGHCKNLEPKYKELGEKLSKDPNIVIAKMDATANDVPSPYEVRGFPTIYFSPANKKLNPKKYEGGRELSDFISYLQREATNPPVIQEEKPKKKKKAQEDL", "test": "Isothermal Titration Calorimetry of ERp57 with silibinin", "format": "binding", "details": "Figure 5b, ERp57 5 μM, silibinin 50 μM", "protocol": "Both the protein and the ligands were in the same buffer (see Materials and Methods). […] (Lower panel) Integrated heats of reaction plotted against the molar ratio of total ligand concentration to total protein concentration. […] The integrated heat of reaction is plotted against the molar ratio of total ligand concentration to total protein concentration.\nITC experiments were performed at 25 °C using a MicroCal ITC200 microcalorimeter (MicroCal Inc., Northampton, MA, USA). […] Samples were centrifuged before the experiments to eliminate possible aggregates. Protein and ligand solutions were degassed before use. Titrations were performed at 25 °C. The protein solution was placed in the sample cell, and each ligand solution was loaded into the syringe injector. The titrations involved 19 injections of 2 μL at 180 s intervals. The syringe stirring speed was set at 1,000 rpm. The reaction was very fast, as shown by the immediate appearance of an endothermic sharp peak following the addition of ligand to the protein and its deletion mutants solution in the microcalorimetric titration experiment. Reference titrations of ligand into buffer were used to correct for heats of dilution. […] The values of ΔH were measured for each titration, and fitting the binding isotherms with a one-site binding model yielded the values of the association constant (Ka). […]"}, "ERp57 [2]": {"tested_on": "ERp57", "details": "cited from earlier work"}}, "data": [{"smiles": "COc1cc(C2Oc3cc([C@H]4Oc5cc(O)cc(O)c5C(=O)[C@@H]4O)ccc3OC2CO)ccc1O", "note": "(stereo partly drawn) [silibinin]", "values": [{"measurement": "n (best fit)", "setting": "ERp57 [1]", "value": "0.776 (±0.0183) sites/mole"}, {"measurement": "Kd", "setting": "ERp57 [1]; read-out: Ka (best fit) (converted)", "value": 0.483, "unit": "µM"}, {"measurement": "affinity for ERp57 compared to calcitriol", "setting": "ERp57 [2]", "value": "at least two orders of magnitude lower"}]}]}
